The text below walks through data of publication PMC6270878, “Trigocherrierin A, a Potent Inhibitor of Chikungunya Virus Replication” (Molecules, 2014).

Data set [1] deals with chikungunya virus (CHIKV). The data set is described as follows: Chikungunya virus-cell based antiviral assay (inhibition of virus-induced cell death, MTS readout). The conditions noted are these: for EC50: Chikungunya virus, Vero, read-out: EC50 (50% effective concentration, inhibits CHIKV-induced cell death by 50%); for selectivity index (SI), CC50 Vero/EC50 CHIKV: ratio of CC50 to EC50.

A further data set in a line: in vitro. The following applies: African green monkey.

For `C=C(C)C12OC3(c4ccccc4)OC1C1C4OC4(CO)C(O)C4(O)C(O)C(C)=CC4C1(O3)C(C)C2OC(=O)C(C)CCCCCCCC` (centres unmarked) [Compound 1, Trigocherrierin A], in data set [1], the EC50 came out at 0.6 ± 0.1 µM and the “selectivity index (SI), CC50 Vero/EC50 CHIKV” value is reported as 71.7. The CC50 in the data set “in vitro” was 43 ± 16 µM.

For the molecule `CCN(CC)CCCC(C)Nc1ccnc2cc(Cl)ccc12` (centres unmarked) [Chloroquine, chloroquine, reference compound], the EC50 in data set [1] came out at 10 ± 5 µM. Also, the CC50 in the data set “in vitro” came to 89 ± 28 µM.

As for `CC1CCCCCCC(C)C(=O)OC2C(=CCl)C=C3C2(O)C(O)C2(CO)OC2C2C4OC5(c6ccccc6)OC(C(C)C32O5)C4(O)C(O)(CO)C1` (centres unmarked) [Compound 2, Trigocherriolide E], in data set [1], the EC50 is 0.7 ± 0.1 µM and the “selectivity index (SI), CC50 Vero/EC50 CHIKV” value stood at 9.4. The CC50 in “in vitro” was 6.6 ± 0.6 µM.
